Publication doi:10.64898/2025.12.05.692609v2, “Early intervention with a PACAP lactoside following repetitive mild traumatic brain injury prevents persistent LHb hyperactivity and motivational deficits in male mice” (bioRxiv, 2025)
Where two headings read alike, the source gives them in different places. Where a SMILES comes first, the peptide text is derived from it. [ ]: non-standard residue; d: D form. The star is where a group is joined. X1 = OC[C@H]1O[C@@H](O[C@H]2[C@H](O)[C@@H](O)[C@H](*)O[C@@H]2CO)[C@H](O)[C@@H](O)[C@H]1O; Nle = CCCC[C@H](N)C(=O)O

Test system: LHb neurons
Format: in vivo, male C57BL/6 mice
[1] = mTBI+early TES2320: 10 mg/kg i.p. within 30 min after each of 5 injuries, cell-attached V=0, ~4 weeks post-injury, n=138 cells/13 mice
[2] = mTBI+late TES2320: single 10 mg/kg i.p. injection one month post-mTBI, cell-attached V=0, n=58 cells/5 mice

For `CCCC[C@H](NC(=O)[C@H](CCC(N)=O)NC(=O)[C@H](CCCCN)NC(=O)[C@H](CCCNC(=N)N)NC(=O)[C@H](Cc1ccc(O)cc1)NC(=O)[C@H](CCCNC(=N)N)NC(=O)[C@H](CO)NC(=O)[C@H](Cc1ccc(O)cc1)NC(=O)[C@H](CO)NC(=O)[C@H](CC(=O)O)NC(=O)[C@@H](NC(=O)[C@H](Cc1ccccc1)NC(=O)[C@@H](NC(=O)CNC(=O)[C@H](CC(=O)O)NC(=O)[C@H](CO)NC(=O)[C@@H](N)Cc1c[nH]cn1)[C@@H](C)CC)[C@@H](C)O)C(=O)N[C@@H](C)C(=O)N[C@H](C(=O)N[C@@H](CCCCN)C(=O)N[C@@H](CCCCN)C(=O)N[C@@H](Cc1ccc(O)cc1)C(=O)N[C@@H](CC(C)C)C(=O)N[C@@H](CO[C@@H]1O[C@H](CO)[C@@H](O[C@@H]2O[C@H](CO)[C@H](O)[C@H](O)[C@H]2O)[C@H](O)[C@H]1O)C(N)=O)C(C)C` [TES2320] (H-HSDGIFTDSYSRYRKQ[Nle]AVKKYLS(X1)-NH2; N-terminus assumed), the “effect on mTBI-induced spontaneous LHb tonic hyperactivity” value (early intervention, 10 mg/kg i.p. x5, vs mTBI+vehicle p<0.01, Chi squared test) was “prevented”, the “effect on mTBI-induced spontaneous LHb tonic hyperactivity” value (late intervention, single 10 mg/kg i.p. one month post-mTBI, vs mTBI+vehicle p<0.05, Chi squared test) was “reversed” and the “LHb neurons bursting, spontaneous activity” value [1] was 4%. For the same compound, the “LHb neurons silent, spontaneous activity” value [1] was 50%, the “LHb neurons tonic, spontaneous activity” value [1] was 46% and the “LHb neurons bursting, spontaneous activity” value [2] was 5%. The “LHb neurons silent, spontaneous activity” value [2] was 48% and the “LHb neurons tonic, spontaneous activity” value [2] was 47%.
